Test results from PubChem BioAssay AID1982 (Sanford-Burnham Center for Chemical Genomics, 2009).
Calls of active or inactive are those of the source. How the calls were made is not given here.

Experiments:
Test in all cases: kinase panel binding selectivity, selectivity assay, biochemical, KINOMEscan (AID 1982)
ACVR1 = details: KINOMEscan 353-kinase binding panel, qPCR, at 10 µM, stronger effect = lower value
AURKC = details: KINOMEscan 353-kinase binding panel, qPCR, at 10 µM, stronger effect = lower value
BMPR1B = details: KINOMEscan 353-kinase binding panel, qPCR, at 10 µM, stronger effect = lower value
BRSK2 = details: KINOMEscan 353-kinase binding panel, qPCR, at 10 µM, stronger effect = lower value
CHEK2 = details: KINOMEscan 353-kinase binding panel, qPCR, at 10 µM, stronger effect = lower value
[1] = target: Calcium/calmodulin-dependent protein kinase type II subunit gamma (Homo sapiens) (UniProt Q13555); details: KINOMEscan 353-kinase binding panel, qPCR; CAMK2G; at 10 µM; stronger effect = lower value
DDR1 = details: KINOMEscan 353-kinase binding panel, qPCR, at 10 µM, stronger effect = lower value
DLK = details: KINOMEscan 353-kinase binding panel, qPCR, at 10 µM, stronger effect = lower value
[2] = target: Death-associated protein kinase 3 (Homo sapiens) (UniProt O43293); details: KINOMEscan 353-kinase binding panel, qPCR; DAPK3; at 10 µM; stronger effect = lower value
[3] = target: Dual specificity mitogen-activated protein kinase kinase 1 (Homo sapiens) (UniProt Q02750); details: KINOMEscan 353-kinase binding panel, qPCR; MEK1; at 10 µM; stronger effect = lower value
[4] = target: Dual specificity protein kinase CLK3 (Homo sapiens) (UniProt P49761); details: KINOMEscan 353-kinase binding panel, qPCR, at 10 µM, stronger effect = lower value
EPHB2 = details: KINOMEscan 353-kinase binding panel, qPCR, at 10 µM, stronger effect = lower value
ERK3 = details: KINOMEscan 353-kinase binding panel, qPCR, at 10 µM, stronger effect = lower value
[5] = target: Hepatocyte growth factor receptor (Homo sapiens) (UniProt P08581); details: KINOMEscan 353-kinase binding panel, qPCR; MET; at 10 µM; stronger effect = lower value
[6] = target: High affinity nerve growth factor receptor (Homo sapiens) (UniProt P04629); details: KINOMEscan 353-kinase binding panel, qPCR; TRKA; at 10 µM; stronger effect = lower value
LOK = details: KINOMEscan 353-kinase binding panel, qPCR, at 10 µM, stronger effect = lower value
MEK3 = details: KINOMEscan 353-kinase binding panel, qPCR, at 10 µM, stronger effect = lower value
MLK1 = details: KINOMEscan 353-kinase binding panel, qPCR, at 10 µM, stronger effect = lower value
MYLK2 = details: KINOMEscan 353-kinase binding panel, qPCR, at 10 µM, stronger effect = lower value
[7] = target: Mitogen-activated protein kinase kinase kinase 20 (Homo sapiens) (UniProt Q9NYL2); details: KINOMEscan 353-kinase binding panel, qPCR; ZAK; at 10 µM; stronger effect = lower value
[8] = target: NT-3 growth factor receptor (Homo sapiens) (UniProt Q16288); details: KINOMEscan 353-kinase binding panel, qPCR; TRKC; at 10 µM; stronger effect = lower value
PCTK2 = details: KINOMEscan 353-kinase binding panel, qPCR, at 10 µM, stronger effect = lower value
PKN1 = details: KINOMEscan 353-kinase binding panel, qPCR, at 10 µM, stronger effect = lower value
[9] = target: Phosphorylase b kinase gamma catalytic chain, liver/testis isoform (Homo sapiens) (UniProt P15735); details: KINOMEscan 353-kinase binding panel, qPCR; PHKG2; at 10 µM; stronger effect = lower value
[10] = target: Protein kinase C theta type (Homo sapiens) (UniProt Q04759); details: KINOMEscan 353-kinase binding panel, qPCR; PRKCQ; at 10 µM; stronger effect = lower value
SNF1LK = details: KINOMEscan 353-kinase binding panel, qPCR, at 10 µM, stronger effect = lower value
SRPK3 = details: KINOMEscan 353-kinase binding panel, qPCR, at 10 µM, stronger effect = lower value
[11] = target: Serine/threonine-protein kinase D2 (Homo sapiens) (UniProt Q9BZL6); details: KINOMEscan 353-kinase binding panel, qPCR; PRKD2; at 10 µM; stronger effect = lower value
[12] = target: Serine/threonine-protein kinase D3 (Homo sapiens) (UniProt O94806); details: KINOMEscan 353-kinase binding panel, qPCR; PRKD3; at 10 µM; stronger effect = lower value
[13] = target: Serine/threonine-protein kinase DCLK1 (Homo sapiens) (UniProt O15075); details: KINOMEscan 353-kinase binding panel, qPCR; DCAMKL1; at 10 µM; stronger effect = lower value
[14] = target: Serine/threonine-protein kinase NLK (Homo sapiens) (UniProt Q9UBE8); details: KINOMEscan 353-kinase binding panel, qPCR, at 10 µM, stronger effect = lower value
[15] = target: Serine/threonine-protein kinase SIK2 (Homo sapiens) (UniProt Q9H0K1); details: KINOMEscan 353-kinase binding panel, qPCR; SNF1LK2; at 10 µM; stronger effect = lower value
TNNI3K = details: KINOMEscan 353-kinase binding panel, qPCR, at 10 µM, stronger effect = lower value
[16] = target: Vascular endothelial growth factor receptor 1 (Homo sapiens) (UniProt P17948); details: KINOMEscan 353-kinase binding panel, qPCR; FLT1; at 10 µM; stronger effect = lower value
[17] = target: cAMP-dependent protein kinase catalytic subunit PRKX (Homo sapiens) (UniProt P51817); details: KINOMEscan 353-kinase binding panel, qPCR, at 10 µM, stronger effect = lower value

Measured: percent of control binding

Sequence of Protein kinase C theta type (Homo sapiens) (Q04759 whole entry, looked up): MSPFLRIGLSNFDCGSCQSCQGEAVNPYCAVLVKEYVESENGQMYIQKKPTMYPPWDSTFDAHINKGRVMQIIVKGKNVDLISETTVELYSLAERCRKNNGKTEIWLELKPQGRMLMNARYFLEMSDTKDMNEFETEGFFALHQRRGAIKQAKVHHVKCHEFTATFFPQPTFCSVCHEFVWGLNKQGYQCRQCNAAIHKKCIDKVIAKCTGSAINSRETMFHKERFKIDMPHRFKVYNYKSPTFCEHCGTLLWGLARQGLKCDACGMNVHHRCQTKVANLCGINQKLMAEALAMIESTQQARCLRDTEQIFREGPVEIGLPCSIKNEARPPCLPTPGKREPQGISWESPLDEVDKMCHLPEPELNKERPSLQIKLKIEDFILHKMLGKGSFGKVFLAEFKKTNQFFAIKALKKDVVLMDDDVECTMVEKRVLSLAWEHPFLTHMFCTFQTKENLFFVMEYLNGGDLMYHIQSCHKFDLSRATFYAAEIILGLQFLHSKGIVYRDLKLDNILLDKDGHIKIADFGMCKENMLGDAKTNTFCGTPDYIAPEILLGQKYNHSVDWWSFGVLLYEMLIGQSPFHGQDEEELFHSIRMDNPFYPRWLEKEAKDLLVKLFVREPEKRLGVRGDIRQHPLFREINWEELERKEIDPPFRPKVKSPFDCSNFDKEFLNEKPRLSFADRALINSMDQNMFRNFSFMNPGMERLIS
Sequence of Serine/threonine-protein kinase DCLK1 (Homo sapiens) (O15075 whole entry, looked up): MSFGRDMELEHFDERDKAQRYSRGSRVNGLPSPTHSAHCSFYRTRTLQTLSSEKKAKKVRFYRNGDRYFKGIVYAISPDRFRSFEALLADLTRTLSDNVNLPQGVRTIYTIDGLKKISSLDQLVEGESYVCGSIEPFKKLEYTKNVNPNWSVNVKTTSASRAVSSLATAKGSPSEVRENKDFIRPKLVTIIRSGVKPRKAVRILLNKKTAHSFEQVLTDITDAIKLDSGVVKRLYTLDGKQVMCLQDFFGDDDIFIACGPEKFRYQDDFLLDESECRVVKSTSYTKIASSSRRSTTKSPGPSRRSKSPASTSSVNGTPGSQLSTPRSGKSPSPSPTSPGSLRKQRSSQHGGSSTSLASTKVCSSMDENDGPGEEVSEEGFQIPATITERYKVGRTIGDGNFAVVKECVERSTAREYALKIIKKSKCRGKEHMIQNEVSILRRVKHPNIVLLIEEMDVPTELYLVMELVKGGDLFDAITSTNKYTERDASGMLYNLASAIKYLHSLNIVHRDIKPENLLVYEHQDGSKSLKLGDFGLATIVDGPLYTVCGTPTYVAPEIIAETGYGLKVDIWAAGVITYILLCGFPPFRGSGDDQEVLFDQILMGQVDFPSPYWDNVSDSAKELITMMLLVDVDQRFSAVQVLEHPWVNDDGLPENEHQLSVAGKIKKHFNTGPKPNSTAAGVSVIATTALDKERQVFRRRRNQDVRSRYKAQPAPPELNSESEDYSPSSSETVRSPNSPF
Sequence of Dual specificity mitogen-activated protein kinase kinase 1 (Homo sapiens) (Q02750 whole entry, looked up): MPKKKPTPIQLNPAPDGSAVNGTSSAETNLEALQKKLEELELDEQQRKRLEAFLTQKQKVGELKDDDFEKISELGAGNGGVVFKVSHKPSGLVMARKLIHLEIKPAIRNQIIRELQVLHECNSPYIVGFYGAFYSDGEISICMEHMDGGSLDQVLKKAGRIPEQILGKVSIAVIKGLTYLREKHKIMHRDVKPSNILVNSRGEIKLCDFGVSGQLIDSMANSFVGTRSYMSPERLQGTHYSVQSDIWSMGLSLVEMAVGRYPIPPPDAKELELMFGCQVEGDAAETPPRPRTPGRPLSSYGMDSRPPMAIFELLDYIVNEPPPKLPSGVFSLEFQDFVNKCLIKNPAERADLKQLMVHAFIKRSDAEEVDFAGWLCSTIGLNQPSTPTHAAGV
Sequence of Phosphorylase b kinase gamma catalytic chain, liver/testis isoform (Homo sapiens) (P15735 whole entry, looked up, canonical isoform): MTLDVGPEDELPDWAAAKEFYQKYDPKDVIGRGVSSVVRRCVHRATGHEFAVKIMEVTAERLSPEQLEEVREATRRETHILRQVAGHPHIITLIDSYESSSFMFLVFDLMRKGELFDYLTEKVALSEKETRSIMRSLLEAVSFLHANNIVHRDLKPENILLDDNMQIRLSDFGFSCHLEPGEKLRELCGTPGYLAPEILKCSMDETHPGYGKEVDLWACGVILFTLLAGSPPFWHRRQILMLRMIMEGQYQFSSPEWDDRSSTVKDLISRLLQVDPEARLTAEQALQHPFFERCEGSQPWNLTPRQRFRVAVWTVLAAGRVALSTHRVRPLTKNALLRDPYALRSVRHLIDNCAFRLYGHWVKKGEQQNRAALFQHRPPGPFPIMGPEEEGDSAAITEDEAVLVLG
Sequence of Serine/threonine-protein kinase D3 (Homo sapiens) (O94806 whole entry, looked up): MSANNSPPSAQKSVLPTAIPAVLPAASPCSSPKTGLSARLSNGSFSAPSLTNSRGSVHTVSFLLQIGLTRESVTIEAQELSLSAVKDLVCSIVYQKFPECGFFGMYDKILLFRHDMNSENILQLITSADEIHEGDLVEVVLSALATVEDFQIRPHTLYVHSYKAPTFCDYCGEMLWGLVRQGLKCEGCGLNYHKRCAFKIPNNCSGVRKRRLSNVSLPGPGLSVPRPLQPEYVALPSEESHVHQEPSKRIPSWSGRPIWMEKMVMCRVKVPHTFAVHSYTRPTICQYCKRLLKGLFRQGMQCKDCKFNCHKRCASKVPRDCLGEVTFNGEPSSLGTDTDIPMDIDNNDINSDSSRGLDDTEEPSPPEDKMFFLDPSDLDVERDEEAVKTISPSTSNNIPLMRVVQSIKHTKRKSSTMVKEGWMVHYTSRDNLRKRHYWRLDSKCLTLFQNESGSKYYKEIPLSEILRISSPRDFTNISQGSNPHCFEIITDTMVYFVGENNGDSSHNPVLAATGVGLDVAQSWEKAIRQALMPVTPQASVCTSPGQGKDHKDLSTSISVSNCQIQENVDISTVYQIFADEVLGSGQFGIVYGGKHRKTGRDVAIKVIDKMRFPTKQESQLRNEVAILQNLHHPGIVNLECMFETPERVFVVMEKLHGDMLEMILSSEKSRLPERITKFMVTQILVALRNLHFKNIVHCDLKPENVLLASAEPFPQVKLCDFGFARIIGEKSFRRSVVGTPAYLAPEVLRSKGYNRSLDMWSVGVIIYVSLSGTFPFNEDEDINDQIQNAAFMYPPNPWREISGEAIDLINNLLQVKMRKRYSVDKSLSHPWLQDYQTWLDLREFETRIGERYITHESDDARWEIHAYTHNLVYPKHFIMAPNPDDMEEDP
Sequence of Serine/threonine-protein kinase SIK2 (Homo sapiens) (Q9H0K1 whole entry, looked up): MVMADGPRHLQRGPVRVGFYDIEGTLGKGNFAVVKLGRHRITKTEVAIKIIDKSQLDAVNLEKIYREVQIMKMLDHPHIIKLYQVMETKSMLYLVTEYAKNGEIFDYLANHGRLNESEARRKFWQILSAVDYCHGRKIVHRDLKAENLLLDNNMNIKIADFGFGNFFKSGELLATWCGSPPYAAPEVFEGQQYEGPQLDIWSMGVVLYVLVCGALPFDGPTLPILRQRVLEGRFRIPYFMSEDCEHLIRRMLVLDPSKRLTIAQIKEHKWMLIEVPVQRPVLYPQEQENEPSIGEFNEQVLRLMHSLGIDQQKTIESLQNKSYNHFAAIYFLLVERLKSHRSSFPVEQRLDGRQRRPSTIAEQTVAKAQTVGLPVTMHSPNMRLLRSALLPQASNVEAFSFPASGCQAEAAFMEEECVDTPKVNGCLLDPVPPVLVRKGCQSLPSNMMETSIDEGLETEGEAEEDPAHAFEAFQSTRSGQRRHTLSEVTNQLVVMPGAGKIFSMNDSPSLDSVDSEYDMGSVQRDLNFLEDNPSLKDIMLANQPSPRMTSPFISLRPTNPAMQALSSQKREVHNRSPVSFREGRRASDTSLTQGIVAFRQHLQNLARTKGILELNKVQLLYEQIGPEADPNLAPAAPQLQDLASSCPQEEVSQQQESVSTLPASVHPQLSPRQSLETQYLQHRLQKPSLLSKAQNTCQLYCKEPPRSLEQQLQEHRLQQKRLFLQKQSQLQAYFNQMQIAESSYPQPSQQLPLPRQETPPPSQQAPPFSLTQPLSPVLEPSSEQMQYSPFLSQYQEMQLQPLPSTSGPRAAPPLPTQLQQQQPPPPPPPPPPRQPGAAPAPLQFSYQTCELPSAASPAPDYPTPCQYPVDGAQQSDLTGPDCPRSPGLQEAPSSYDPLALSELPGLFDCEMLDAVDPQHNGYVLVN
Sequence of Mitogen-activated protein kinase kinase kinase 20 (Homo sapiens) (Q9NYL2 whole entry, looked up): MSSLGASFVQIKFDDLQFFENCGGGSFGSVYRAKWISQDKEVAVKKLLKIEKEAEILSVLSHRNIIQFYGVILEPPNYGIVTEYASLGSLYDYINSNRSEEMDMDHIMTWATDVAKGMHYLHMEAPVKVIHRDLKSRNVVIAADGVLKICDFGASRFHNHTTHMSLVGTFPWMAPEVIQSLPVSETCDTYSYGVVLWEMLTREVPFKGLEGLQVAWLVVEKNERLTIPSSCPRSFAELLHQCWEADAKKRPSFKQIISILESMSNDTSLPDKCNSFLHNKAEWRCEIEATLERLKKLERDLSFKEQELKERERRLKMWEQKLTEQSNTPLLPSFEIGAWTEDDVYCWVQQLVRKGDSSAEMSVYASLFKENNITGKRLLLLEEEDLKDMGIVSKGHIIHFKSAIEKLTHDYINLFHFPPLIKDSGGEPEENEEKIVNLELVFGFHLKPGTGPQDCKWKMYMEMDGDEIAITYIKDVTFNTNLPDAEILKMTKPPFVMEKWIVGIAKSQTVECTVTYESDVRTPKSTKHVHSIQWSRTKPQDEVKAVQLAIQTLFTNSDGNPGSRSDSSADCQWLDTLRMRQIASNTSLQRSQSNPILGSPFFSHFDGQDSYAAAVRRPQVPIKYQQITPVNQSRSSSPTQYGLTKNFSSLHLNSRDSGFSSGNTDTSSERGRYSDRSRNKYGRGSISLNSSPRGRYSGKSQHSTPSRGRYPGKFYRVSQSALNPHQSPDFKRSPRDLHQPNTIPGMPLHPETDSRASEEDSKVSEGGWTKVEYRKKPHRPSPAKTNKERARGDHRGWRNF

Cc1cc2nc(NCCCO)n(CC(=O)c3cc(C(C)(C)C)c(O)c(C(C)(C)C)c3)c2cc1C
inactive: ACVR1 89% | AURKC 100% | BMPR1B 100% | BRSK2 100% | CHEK2 100% | [1] 100% | DDR1 100% | DLK 82% | [2] 100% | [3] 75% | [4] 100% | EPHB2 96% | ERK3 86% | [5] 97% | [6] 100% | LOK 95% | MEK3 100% | MLK1 100% | MYLK2 97% | [7] 93% | [8] 100% | PCTK2 99% | PKN1 100% | [9] 100% | [10] 100% | SNF1LK 100% | SRPK3 87% | [11] 91% | [12] 100% | [13] 100% | [14] 100% | [15] 100% | TNNI3K 82% | [16] 100% | [17] 100%
